# BindingDB's records for doi:10.1074/jbc.272.51.31949 (Schering-Plough Research Institute, 1997)
# Where a SMILES comes first, the peptide text is derived from it. [ ]: non-standard residue; d: D form.
# What was measured:
# Galanin receptor type 3 = molecular target: T1, Galanin receptor type 3 (Rattus norvegicus, UniProt O88626)
# T1 sequence (O88626 whole entry): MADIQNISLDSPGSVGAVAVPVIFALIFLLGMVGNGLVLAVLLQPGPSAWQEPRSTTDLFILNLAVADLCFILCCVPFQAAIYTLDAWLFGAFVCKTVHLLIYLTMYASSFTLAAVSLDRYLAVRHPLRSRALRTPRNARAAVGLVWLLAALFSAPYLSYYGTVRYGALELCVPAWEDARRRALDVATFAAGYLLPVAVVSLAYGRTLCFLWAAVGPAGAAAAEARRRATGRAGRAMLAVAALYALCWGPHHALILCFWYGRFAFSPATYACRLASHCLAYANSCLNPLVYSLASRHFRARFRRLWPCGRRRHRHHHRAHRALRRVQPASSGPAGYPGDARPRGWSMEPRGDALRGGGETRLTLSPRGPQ
# Galanin receptor type 2 = molecular target: T2, Galanin receptor type 2 (Rattus norvegicus, UniProt O08726)
# T2 sequence (O08726 whole entry): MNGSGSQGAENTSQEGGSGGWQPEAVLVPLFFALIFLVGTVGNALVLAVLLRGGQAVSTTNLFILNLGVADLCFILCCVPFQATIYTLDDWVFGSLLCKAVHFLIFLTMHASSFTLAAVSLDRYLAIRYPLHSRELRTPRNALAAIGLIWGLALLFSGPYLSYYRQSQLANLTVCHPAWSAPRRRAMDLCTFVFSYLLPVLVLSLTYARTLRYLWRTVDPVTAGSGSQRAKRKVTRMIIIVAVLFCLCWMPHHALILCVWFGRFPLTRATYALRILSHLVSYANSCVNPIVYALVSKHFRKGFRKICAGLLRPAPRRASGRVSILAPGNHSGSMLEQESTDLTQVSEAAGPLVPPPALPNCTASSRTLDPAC
Molecule,Ki (Galanin receptor type 3),Ki (Galanin receptor type 2)
"H-LLGPHAIDNHRSFSDKHGLT-NH2 [Galanin (10-29), rat]",1000 nM,–
CCC(C)C(NC(=O)C(C)NC(=O)C(Cc1cnc[nH]1)NC(=O)C1CCCN1C(=O)CNC(=O)C(CC(C)C)NC(=O)C(CC(C)C)NC(=O)C(Cc1ccc(O)cc1)NC(=O)CNC(=O)C(C)NC(=O)C(CO)NC(=O)C(CC(N)=O)NC(=O)C(CC(C)C)NC(=O)C(NC(=O)C(Cc1c[nH]c2ccccc12)NC(=O)CN)C(C)O)C(=O)NC(CC(=O)O)C(=O)NC(CC(N)=O)C(=O)NC(Cc1cnc[nH]1)C(=O)NC(CCCN=C(N)N)C(=O)NC(CO)C(=O)NC(Cc1ccccc1)C(=O)NC(CO)C(=O)NC(CC(=O)O)C(=O)NC(CCCCN)C(=O)NC(Cc1cnc[nH]1)C(=O)NCC(=O)NC(CC(C)C)C(=O)NC(C(=O)NCC(N)=O)C(C)O (stereo unspecified) [CAS_132699-74-2],> 1000 nM,–
CC[C@H](C)[C@H](NC(=O)[C@H](C)NC(=O)[C@H](Cc1cnc[nH]1)NC(=O)[C@@H]1CCCN1C(=O)CNC(=O)[C@H](CC(C)C)NC(=O)[C@H](CC(C)C)NC(=O)[C@H](Cc1ccc(O)cc1)NC(=O)CNC(=O)[C@H](C)NC(=O)[C@H](CO)NC(=O)[C@H](CC(N)=O)NC(=O)[C@H](CC(C)C)NC(=O)[C@@H](NC(=O)[C@H](Cc1c[nH]c2ccccc12)NC(=O)CN)[C@@H](C)O)C(=O)N[C@@H](CC(=O)O)C(=O)N[C@@H](CC(N)=O)C(=O)N[C@@H](Cc1cnc[nH]1)C(N)=O [Galanin rat],6.25 nM,4.7 nM
H-ELEPEDEARPGGFDRLQSQDKAIRTIMEFLAFLHLKEAGAL-NH2 [GMAP (1-41)],1000 nM,–
"CC(C)C[C@H](NC(=O)[C@H](CC(C)C)NC(=O)[C@@H](Cc1c[nH]c2ccccc12)NC(=O)[C@@H](Cc1c[nH]c2ccccc12)NC(=O)[C@H](C)NC(=O)[C@H](NC(=O)[C@H](CC(N)=O)NC(=O)[C@H](CC(C)C)NC(=O)[C@@H](NC(=O)[C@H](Cc1c[nH]c2ccccc12)NC(=O)CN)[C@@H](C)O)[C@H](C)O)C(=O)NCC(=O)N1CCC[C@H]1C(=O)N[C@@H](Cc1cnc[nH]1)C(=O)N[C@@H](C)CO [Gal-(1-15)-ol,[d-Thr6,d-Trp8,9]]",1000 nM,–
"CC(C)C[C@H](NC(=O)[C@H](CC(C)C)NC(=O)[C@H](Cc1ccc(O)cc1)NC(=O)[C@@H](Cc1c[nH]c2ccccc12)NC(=O)[C@H](C)NC(=O)[C@H](C)NC(=O)[C@H](CC(N)=O)NC(=O)[C@H](CC(C)C)NC(=O)[C@@H](NC(=O)[C@H](Cc1c[nH]c2ccccc12)NC(=O)CN)[C@@H](C)O)C(=O)NCC(=O)N1CCC[C@H]1C(=O)N[C@@H](Cc1cnc[nH]1)C(=O)N[C@@H](C)CO [Galanin (1-15)-ol,[Ala6,D-trp8]]",17.9 nM,–
H-LPGLPSAASSEDAGQS-NH2 [CAS_125455-59-6],> 1000 nM,1000 nM
CC(C)C[C@H](NC(=O)[C@H](CC(C)C)NC(=O)[C@H](Cc1ccc(O)cc1)NC(=O)CNC(=O)[C@H](C)NC(=O)[C@H](CO)NC(=O)[C@H](CC(N)=O)NC(=O)[C@H](CC(C)C)NC(=O)[C@@H](NC(=O)[C@H](Cc1c[nH]c2ccccc12)NC(=O)CN)[C@@H](C)O)C(=O)NCC(=O)N1CCC[C@H]1C(=O)N1CCC[C@H]1C(=O)N1CCC[C@H]1C(=O)NCC(=O)N[C@@H](Cc1ccccc1)C(=O)N[C@@H](CO)C(=O)N1CCC[C@H]1C(=O)N[C@@H](Cc1ccccc1)C(=O)N[C@@H](CCCN=C(N)N)C(N)=O,7.5 nM,–
CC[C@H](C)[C@H](NC(=O)[C@H](C)NC(=O)[C@H](Cc1c[nH]cn1)NC(=O)[C@@H]1CCCN1C(=O)CNC(=O)[C@H](CC(C)C)NC(=O)[C@H](CC(C)C)NC(=O)[C@H](Cc1ccc(O)cc1)NC(=O)CNC(=O)[C@H](C)NC(=O)[C@H](CO)NC(=O)[C@H](CC(N)=O)NC(=O)[C@H](CC(C)C)NC(=O)[C@@H](NC(=O)[C@@H](N)Cc1c[nH]c2ccccc12)[C@@H](C)O)C(=O)N[C@@H](CC(=O)O)C(=O)N[C@@H](CC(N)=O)C(=O)N[C@@H](Cc1c[nH]cn1)C(=O)N[C@@H](CCCNC(=N)N)C(=O)N[C@@H](CO)C(=O)N[C@@H](Cc1ccccc1)C(=O)N[C@@H](CO)C(=O)N[C@@H](CC(=O)O)C(=O)N[C@@H](CCCCN)C(=O)N[C@@H](Cc1c[nH]cn1)C(=O)NCC(=O)N[C@@H](CC(C)C)C(=O)N[C@H](C(N)=O)[C@@H](C)O [Galanin Porcine 2-29],12.6 nM,1.92 nM
CC(C)C[C@H](NC(=O)[C@H](CC(C)C)NC(=O)[C@@H](Cc1c[nH]c2ccccc12)NC(=O)[C@H](Cc1ccccc1)NC(=O)[C@@H](Cc1c[nH]c2ccccc12)NC(=O)[C@H](CCC(N)=O)NC(=O)[C@H](CCC(N)=O)NC(=O)[C@@H]1CCCN1C(=O)[C@H](CCCCN)NC(=O)[C@@H]1CCCN1C(=O)[C@@H](CCCNC(=N)N)NC(=O)[C@@H]1CCCN1C(=O)CNC(=O)[C@H](CC(C)C)NC(=O)[C@H](CC(C)C)NC(=O)[C@H](Cc1ccc(O)cc1)NC(=O)CNC(=O)[C@H](C)NC(=O)[C@H](CO)NC(=O)[C@H](CC(N)=O)NC(=O)[C@H](CC(C)C)NC(=O)[C@@H](NC(=O)[C@H](Cc1c[nH]c2ccccc12)NC(=O)CN)[C@@H](C)O)C(N)=O [Gal(1-13)-Std I] (H-GWTLNSAGYLLGP[dR]PKPQQ[dW]F[dW]LL-NH2),0.75 nM,–
H-GWTLNSAGYLLGPPPALALA-NH2 [M40],54 nM,2.88 nM
"CC[C@H](C)[C@H](NC(=O)[C@H](C)NC(=O)[C@H](Cc1c[nH]cn1)NC(=O)[C@@H]1CCCN1C(=O)CNC(=O)[C@H](CC(C)C)NC(=O)[C@H](CC(C)C)NC(=O)[C@H](Cc1ccc(O)cc1)NC(=O)CNC(=O)[C@H](C)NC(=O)[C@H](CO)NC(=O)[C@H](CC(N)=O)NC(=O)[C@H](CC(C)C)NC(=O)[C@@H](N)[C@@H](C)O)C(=O)N[C@@H](CC(=O)O)C(=O)N[C@@H](CC(N)=O)C(=O)N[C@@H](Cc1c[nH]cn1)C(=O)N[C@@H](CCCNC(=N)N)C(=O)N[C@@H](CO)C(=O)N[C@@H](Cc1ccccc1)C(=O)N[C@@H](CO)C(=O)N[C@@H](CC(=O)O)C(=O)N[C@@H](CCCCN)C(=O)N[C@@H](Cc1c[nH]cn1)C(=O)NCC(=O)N[C@@H](CC(C)C)C(=O)N[C@H](C(N)=O)[C@@H](C)O [Galanin (3-29), rat]",1000 nM,–
